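Compound exposure: 48 hours, 5 concentrations, 96-well plates. GI50 = concentration required for 50% inhibition of growth. At the TGI there is no net growth.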
Columns and labels:
Assay in all cases: DTP human tumour cell line panel, 48 h
[1] = test system: SNB-19 CNS
[2] = test system: CAKI-1 renal
[3] = test system: HT29 colon
[4] = test system: UACC-257 melanoma
[5] = test system: SR leukemia
[6] = test system: CCRF-CEM leukemia
[7] = test system: SNB-75 CNS
[8] = test system: K-562 leukemia
[9] = test system: UACC-62 melanoma
[10] = test system: HOP-62 NSCLC
[11] = test system: HCC-2998 colon
[12] = test system: NCI-H23 lung
[13] = test system: SK-MEL-2 melanoma
[14] = test system: HCT-15 colon
[15] = test system: U251 CNS
[16] = test system: ACHN renal
[17] = test system: MDA-MB-435
[18] = test system: BT-549 breast
[19] = test system: MALME-3M melanoma
[20] = test system: HCT-116 colon
[21] = test system: TK-10 renal
[22] = test system: M14 melanoma
[23] = test system: HOP-92 NSCLC
[24] = test system: SF-295 CNS
[25] = test system: IGROV1 ovarian
[26] = test system: OVCAR-3 ovarian
[27] = test system: A498 renal
[28] = test system: RXF 393 renal
[29] = test system: UO-31 renal

C=C1C(=O)O[C@H]2[C@H]1CC/C(C=Nc1ccc(C(F)(F)F)cc1N)=C\CC[C@@]1(C)O[C@@H]21
GI50 [1]: 11.5 µM | TGI [1]: 26.2 µM | GI50 [2]: 3.73 µM | TGI [2]: 16.7 µM | GI50 [3]: 3.65 µM | TGI [3]: 8.6 µM | GI50 [4]: 12.3 µM | TGI [4]: 25.8 µM | GI50 [5]: 2.66 µM | TGI [5]: 10.7 µM | GI50 [6]: 3.16 µM | TGI [6]: 11.2 µM | GI50 [7]: 10.9 µM | TGI [7]: 23.2 µM | GI50 [8]: 4.39 µM | TGI [8]: 16.5 µM | GI50 [9]: 2.91 µM | TGI [9]: 15.6 µM | GI50 [10]: 12.8 µM | TGI [10]: 26.5 µM | GI50 [11]: 16 µM | TGI [11]: 34.9 µM | GI50 [12]: 10.7 µM | TGI [12]: 25.7 µM | GI50 [13]: 11.9 µM | TGI [13]: 26.5 µM | GI50 [14]: 3.48 µM | TGI [14]: 13.6 µM | GI50 [15]: 10.9 µM | TGI [15]: 23.9 µM | GI50 [16]: 6.9 µM | TGI [16]: 22.1 µM | GI50 [17]: 4.74 µM | TGI [17]: 17.2 µM | GI50 [18]: 7.04 µM | TGI [18]: 20.2 µM | GI50 [19]: 11.1 µM | TGI [19]: 26.2 µM | GI50 [20]: 2.38 µM | TGI [20]: 11 µM | GI50 [21]: 6.14 µM | TGI [21]: 17.4 µM | GI50 [22]: 8.04 µM | TGI [22]: 22.3 µM | GI50 [23]: 15.4 µM | TGI [23]: 29.7 µM | GI50 [24]: 13.1 µM | TGI [24]: 26.3 µM | GI50 [25]: 3.36 µM | TGI [25]: 18.4 µM | GI50 [26]: 2.75 µM | TGI [26]: 11.3 µM | GI50 [27]: 17 µM | TGI [27]: 30.8 µM | GI50 [28]: 2.87 µM | TGI [28]: 9.22 µM | GI50 [29]: 2.87 µM | TGI [29]: 19.3 µM

— PubChem BioAssay (NCI)
